Measured values taken from patent US8586588B2, “Aryl pyridazinone derivatives and their use as H3 receptor ligands” (Cephalon, Inc., priority 2006, dated 2013).
Read-outs that look alike come from different tables or passages of the source.

Assays:
human H3 receptor = target: T1, human H3 receptor (Homo sapiens, UniProt Q9Y5N1); assay: Human H3 radioligand binding ([3H]-N-alpha-methylhistamine, CHO cell membranes, SPA); conditions: binding constant as letter class
T1 construct: expressed in transfected cells
T1 sequence (Q9Y5N1 whole entry): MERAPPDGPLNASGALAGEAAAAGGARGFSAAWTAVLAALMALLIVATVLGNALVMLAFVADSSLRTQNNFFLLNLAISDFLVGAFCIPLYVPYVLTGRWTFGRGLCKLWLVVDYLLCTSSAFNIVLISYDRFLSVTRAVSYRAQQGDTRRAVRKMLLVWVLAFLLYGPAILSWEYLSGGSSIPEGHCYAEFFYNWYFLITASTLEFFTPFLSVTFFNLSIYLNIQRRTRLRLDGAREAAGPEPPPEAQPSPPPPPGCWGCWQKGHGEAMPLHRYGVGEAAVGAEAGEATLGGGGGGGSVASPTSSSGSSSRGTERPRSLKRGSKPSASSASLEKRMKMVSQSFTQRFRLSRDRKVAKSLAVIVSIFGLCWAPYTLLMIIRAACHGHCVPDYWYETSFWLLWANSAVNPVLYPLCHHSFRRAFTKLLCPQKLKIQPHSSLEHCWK
Method: (§1) Cell pellets were resuspended in 5 mM Tris-HCl, pH 7.5 with […] and a cocktail of protease inhibitors (Complete Protease Inhibition Tablets, Roche Diagnostics). Cells were disrupted using a polytron cell homogenizer and the suspension was centrifuged at 1000×g for 10 minutes at 4° C. The pellet was discarded and the supernatant centrifuged at 40,000×g for 30 min at 4° C. This membrane pellet was washed in membrane buffer containing 50 mM Tris-HCl, pH 7.5 with 0.6 mM EDTA, 5 mM MgCl2 and protease inhibitors, recentrifuged as above and the final pellet resuspended in membrane buffer plus 250 mM sucrose and frozen at −80° C.
(§2) Membranes were resuspended in 50 mM Tris HCl (pH 7.4), 5 mM MgCl2, 0.1% BSA. The membrane suspensions (10 μg protein per well) were incubated in a 96 well microtiter plate with [^3H]-N-alpha-methylhistamine (approximately 1 nM final concentration), test compounds at various concentrations (0.01 nM-30 μM) and scintillation proximity beads (Perkin Elmer, FlashBlueGPCR Scintillating Beads) in a final volume of 80 μl for 4 hours at room temperature, protected from light. Non-specific binding was determined in the presence of 10 μM clobenpropit. Radioligand bound to receptor, and therefore in proximity to the scintillation beads, was measured using a MicroBeta scintillation counter.

[1] = target: T2, rat histamine H3 receptor (Rattus norvegicus, UniProt Q9QYN8); assay: Rat H3 radioligand binding ([3H]-N-alpha-methylhistamine, CHO-A3 cell membranes, SPA)
T2 construct: encoding the entire 445-amino-acid rat histamine H3 receptor; expressed in transfected cells
T2 sequence (Q9QYN8 whole entry): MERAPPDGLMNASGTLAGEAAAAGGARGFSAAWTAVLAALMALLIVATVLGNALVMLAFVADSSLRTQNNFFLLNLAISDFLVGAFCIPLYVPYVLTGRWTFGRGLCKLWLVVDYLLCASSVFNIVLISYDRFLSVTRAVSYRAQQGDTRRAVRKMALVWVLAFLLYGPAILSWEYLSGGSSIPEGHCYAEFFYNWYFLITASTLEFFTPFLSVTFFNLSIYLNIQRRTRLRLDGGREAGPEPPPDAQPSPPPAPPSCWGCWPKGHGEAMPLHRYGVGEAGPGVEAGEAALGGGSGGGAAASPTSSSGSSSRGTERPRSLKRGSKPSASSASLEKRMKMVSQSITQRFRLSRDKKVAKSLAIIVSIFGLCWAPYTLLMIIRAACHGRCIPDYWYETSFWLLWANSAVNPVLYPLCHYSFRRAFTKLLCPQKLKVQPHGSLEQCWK
Method: as §1, with “This was engineered into the pIRES-neo3 mammalian expression vector, which was stably transfected into the CHO-A3 cell line (Euroscreen, Belgium), followed by clonal selection by limiting dilution. Cells were harvested and cell pellets were frozen (−80° C.). Cell pellets” for “Cell pellets”
as §2

[2] = Table B, binding constant as letter class, read-out: rat H3 Ki

SMILES	Ki (human H3 receptor; Table B)	Ki [1, 2]	also measured
CC1CC(=O)NN=C1c1ccc(OCCCN2CCC[C@H]2C)cc1 (mixture of isomers) [Example 194, 5-Methyl-6-{4-[3-((R)-2-methyl-pyrrolidin-1-yl)-propoxy]-phenyl}-4,5-dihydro-2H-pyridazin-3-one]	0.1 to 100 nM	0.1 to 100 nM	–
CC1CC(=O)NN=C1c1ccc(OCCCN2CCCCC2)cc1 (racemic) [Example 197, 5-Methyl-6-[4-(3-piperidin-1-yl-propoxy)-phenyl]-4,5-dihydro-2H-pyridazin-3-one]	0.1 to 100 nM	0.1 to 100 nM	–
CC1CC(=O)NN=C1c1ccc(OCCCN2CCCC2)cc1 (racemic) [Example 198, 5-Methyl-6-[4-(3-pyrrolidin-1-yl-propoxy)-phenyl]-4,5-dihydro-2H-pyridazin-3-one]	0.1 to 100 nM	0.1 to 100 nM	–
C[C@@H]1CCCN1CCCOc1ccc(C2=NNC(=O)C3CC23)cc1 (mixture of isomers) [Example 243, 5-{4-[3-((R)-2-Methyl-pyrrolidin-1-yl)-propoxy]-phenyl}-3,4-diaza-bicyclo[4.1.0]hept-4-en-2-one]	0.1 to 100 nM	0.1 to 100 nM	–
CC1CC(=O)NN=C1c1ccc(OCCCN2CCC[C@H]2C)cc1 (single isomer, unassigned) [Example 195]	0.1 to 100 nM	0.1 to 100 nM	–
CC1CC(=O)NN=C1c1ccc(OCCCN2CCC[C@H]2C)cc1 (single isomer, unassigned) [Example 196]	0.1 to 100 nM	0.1 to 100 nM	–
C[C@@H]1CCCN1CCCOc1ccc(C2=NNC(=O)C3CC23)cc1 (single isomer, unassigned) [Example 246]	0.1 to 100 nM	0.1 to 100 nM	–
C[C@@H]1CCCN1CCCOc1ccc(C2=NNC(=O)C3CC23)cc1 (single isomer, unassigned) [Example 247]	–	0.1 to 100 nM	–
O=C1NN=C(c2ccc(OC3CCN(C4CCC4)CC3)cc2)C2CC12 (single isomer, unassigned) [Example 248, 5-[4-(1-Cyclobutyl-piperidin-4-yloxy)-phenyl]-3,4-diaza-bicyclo[4.1.0]hept-4-en-2-one]	0.1 to 100 nM	0.1 to 100 nM	–
O=C1NN=C(c2ccc(OC3CCN(C4CCC4)CC3)cc2)C2CC12 (single isomer, unassigned) [Example 249, 5-[4-(1-Cyclobutyl-piperidin-4-yloxy)-phenyl]-3,4-diaza-bicyclo[4.1.0]hept-4-en-2-one]	0.1 to 100 nM	0.1 to 100 nM	–
C[C@@H]1CCCN1CCCOc1ccc(-c2ccc(=O)n(C)n2)cc1 [Example 1, 2-Methyl-6-{4-[3-((R)-2-methyl-pyrrolidin-1-yl)-propoxy]-phenyl}-2H-pyridazin-3-one]	–	–	Ki (human H3 receptor; Table A): 0.1 to 100 nM; Ki ([1]; Table A, binding constant as letter class, read-out: Rat H3 Ki): 0.1 to 100 nM
Cn1nc(-c2ccc(OCCCN3CCC[C@H]3CO)cc2)ccc1=O [Example 14, 6-{4-[3-((S)-2-Hydroxymethyl-pyrrolidin-1-yl)-propoxy]-phenyl}-2-methyl-2H-pyridazin-3-one]	–	–	Ki [1]: 0.1 to 100 nM
Cn1nc(-c2ccc(OCCCN3CCC[C@@H]3CO)cc2)ccc1=O [Example 15, 6-{4-[3-((R)-2-Hydroxymethyl-pyrrolidin-1-yl)-propoxy]-phenyl}-2-methyl-2H-pyridazin-3-one]	–	–	Ki [1]: 501 to 1000 nM
C[C@@H]1CCCN1CCCOc1ccc(-c2n[nH]c(=O)cc2-c2ccccn2)cc1 [Example 112, 6-{4-[3-((R)-2-Methyl-pyrrolidin-1-yl)-propoxy]-phenyl}-5-pyridin-2-yl-2H-pyridazin-3-one]	0.1 to 100 nM	–	–
C[C@@H]1CC(=O)NN=C1c1ccc(OC2CCN(C3CCC3)CC2)cc1 [Example 190, (R)-6-[4-(1-Cyclobutyl-piperidin-4-yloxy)-phenyl]-5-methyl-4,5-dihydro-2H-pyridazin-3-one]	–	–	Ki [1]: 0.1 to 100 nM
C[C@H]1CC(=O)NN=C1c1ccc(OC2CCN(C3CCC3)CC2)cc1 [Example 191, (S)-6-[4-(1-Cyclobutyl-piperidin-4-yloxy)-phenyl]-5-methyl-4,5-dihydro-2H-pyridazin-3-one]	–	–	Ki [1]: 0.1 to 100 nM
